# Measured values taken from PMC11589483, “Preparation and anti-colon cancer effect of a novel curcumin analogue (CA8): in vivo and in vitro evaluation” (Frontiers in Pharmacology, 2024).
# Read-outs that look alike come from different tables or passages of the source.
# Legend:
# [1] = test system: colon cancer cells Caco-2; experiment: MTT antiproliferative assay, Caco-2; assay type: cell-based, human; conditions: for SI Caco2: logarithm of ratio IC50 LO2 / IC50 cancer cells; for IC50: Homo sapiens, read-out: IC50 Caco2
# Protocol: (§1) The human cancer cell lines A549, HepG2, MCF-7, Caco-2, and HeLa and the normal human liver cell line LO2 were all obtained from Shanghai Cell Bank of China. All cells were cultured in RPMI 1640 or DMEM supplemented with 10% fetal bovine serum, 100 U/mL penicillin, and 100 μg/mL streptomycin and incubated at 37°C under 5% CO2 (HEPA incubator class100 Thermo company). The medium was replaced three times a week. Cells used in all were in the exponential growth phase.
# (§2) The cell inhibition rate was evaluated using the MTT assay. Briefly, cells were seeded in a 96-well plate at a density of 3–4 × 10^3 cells per well and incubated at 37°C for 24 h. The MCACs to be tested were dissolved in dimethyl sulfoxide (DMSO, Merck, Germany) and diluted to five concentrations (3.75, 7.5, 15, 30, 60 μM/L) with RPMI 1640 medium, with each dose analyzed in quadruplicate. The concentration of DMSO was always maintained below 1‰, a concentration that is nontoxic to cells. After incubation for 24 or 48 h, MTT reagent (5 mg/mL) was added to each well and the samples were incubated for 3 h at 37°C in the dark. The absorbance of formazan crystals dissolved in 150 µL of DMSO was measured at 570 nm using a microplate reader to identify the cytotoxic effect of the analogues.
# [2] = test system: breast cancer cells MCF-7; experiment: MTT antiproliferative assay, MCF-7; assay type: cell-based; conditions: Homo sapiens
# Protocol: as §1, §2
# [3] = test system: cervical cancer cells HeLa; experiment: MTT antiproliferative assay, HeLa; assay type: cell-based; conditions: Homo sapiens
# Protocol: as §1, §2
# lung cancer cells A549 = experiment: MTT antiproliferative assay, A549; assay type: cell-based; conditions: Homo sapiens
# Protocol: as §1, §2
# liver cancer cells HepG2 = experiment: MTT antiproliferative assay, HepG2; assay type: cell-based; conditions: Homo sapiens
# Protocol: as §1, §2
# [4] = test system: normal human liver cell line LO2; experiment: MTT assay, normal liver cells LO2; assay type: cell-based
# Protocol: as §1, §2
# [5] = Solubility in water by HPLC; assay type: physicochemical; conditions: 25°C, mass of solute dissolved at saturation in 100 g of solvent
# Protocol: The solubility of the synthesized compounds in water was determined using high performance liquid chromatography (HPLC). First, 1.000 g of each compound was accurately weighed, placed in 100 g of water, and stirred at 25°C for a period of time. Then, the reaction system was allowed to stand for 1 h. The supernatant was quantitatively taken, diluted with methanol to volume, and centrifuged, and the solubility was determined using HPLC.
# Caco-2 xenograft tumors = experiment: In vivo anticancer activity, Caco-2 xenograft; conditions: Caco-2 xenograft; CA8 100 mg/kg, CU 100 mg/kg, tegafur 50 mg/kg, gavage every other day
# Protocol: Twenty 5-week-old male BALB nude mice purchased from SPF (Beijing) Biotechnology Co., Ltd. were used for the in vivo pharmacodynamic experiment of CA8. Caco-2 cells (6 × 10^6 cells in 100 μL PBS) were harvested and subcutaneously injected into the right hip of the mice. Then, they were divided into four groups when the tumor volume reached 100 mm^3 and treated with saline, CU (100 mg/kg), tegafur (50 mg/kg), or CA8 (100 mg/kg) via gavage every other day. Tumor size and body weight were measured and recorded every other day. At the end of the experiment, the mice were sacrificed and tumors were harvested and weighed. Tumor volumes were calculated by measuring length (L) and width (W) according to the following formula: V = 0.5 × L × W^2. The tumor tissue was embedded in paraffin, cut into slices, stained with HE, and observed under a light microscope.
# [6] = test system: human cancer cell lines A549, HepG2, MCF-7, Caco-2, and HeLa; experiment: MTT assay, panel of human cancer cell lines (statements in words); assay type: cell-based; conditions: five cancer cell lines, after 24 h of treatment, compared to CU
# Protocol: as §1, §2
Structure (SMILES),"IC50 ([1]; Caco-2, 24 h) [µM]","IC50 ([1]; Caco-2, 48 h) [µM]","IC50 ([2]; MCF7, 24 h) [µM]","IC50 ([2]; MCF7, 48 h) [µM]",IC50 ([3]; 24 h) [µM],IC50 ([3]; 48 h) [µM],"IC50 (lung cancer cells A549; A549, 24 h) [µM]","IC50 (lung cancer cells A549; A549, 48 h) [µM]","IC50 (liver cancer cells HepG2; HepG2, 24 h) [µM]","IC50 (liver cancer cells HepG2; HepG2, 48 h) [µM]",Solubility [5] [mg/100g],SI Caco2 ([1]; 24 h),SI Caco2 ([1]; 48 h),IC50 ([4]; 24 h) [µM],IC50 ([4]; 48 h) [µM],inhibitory effect on tumor growth (Caco-2 xenograft tumors),cytotoxicity [6]
Cc1cc(/C=C2\CN(C(C)C)C/C(=C\c3cc(C)c(O)c(C)c3)C2=O)cc(C)c1O [CA7],44.4 ± 7.38,7.44 ± 0.49,54.2 ± 17.3,18.2 ± 0.52,5.26 ± 0.49,1.26 ± 0.18,36.1 ± 4.76,43.8 ± 5.13,22.7 ± 1.37,2.71 ± 0.49,3.29,−0.05,0.05,39.2 ± 1.67,8.4 ± 0.41,,
"O=c1[nH]c(=O)n(C2CCCO2)cc1F (stereo not shown) [tegafur, reference compound]",,,,,,,,,,,,,,,,CA8 > tegafur > CU,
COc1ccc(/C=C/C(=O)CC(=O)/C=C/c2ccc(OC)nc2)cn1 [CA1],> 60,> 60,> 60,47.3 ± 2.1,> 60,56.5 ± 3.7,> 60,28.6 ± 2.2,> 60,46.9 ± 2.6,0.07,,,> 60,57.6 ± 4.83,,low toxicity
Cc1cc(/C=C2\CNC/C(=C\c3cc(C)c(O)c(C)c3)C2=O)cc(C)c1O [CA6],> 60,> 60,> 60,> 60,> 60,> 60,> 60,> 60,50.4 ± 15.1,9.28 ± 0.68,15.04,,,> 60,> 60,,low toxicity
COc1ccc(/C=C/C(=O)/C=C/c2ccc(OC)nc2)cn1 [CA2],15.8 ± 0.3,10.4 ± 0.7,21.3 ± 3.1,16.8 ± 0.6,18.1 ± 0.8,18.1 ± 0.8,25.9 ± 1.3,16.1 ± 0.8,25.2 ± 1,19.8 ± 0.4,0.42,0.29,0.23,31 ± 0.41,17.5 ± 1.09,,

# Continued, in another order:
"IC50 ([1]; Caco-2, 24 h) [µM]","IC50 ([1]; Caco-2, 48 h) [µM]","IC50 ([2]; MCF7, 24 h) [µM]","IC50 ([2]; MCF7, 48 h) [µM]",IC50 ([3]; 24 h) [µM],IC50 ([3]; 48 h) [µM],"IC50 (lung cancer cells A549; A549, 24 h) [µM]","IC50 (lung cancer cells A549; A549, 48 h) [µM]","IC50 (liver cancer cells HepG2; HepG2, 24 h) [µM]","IC50 (liver cancer cells HepG2; HepG2, 48 h) [µM]",Solubility [5] [mg/100g],Structure (SMILES),SI Caco2 ([1]; 24 h),SI Caco2 ([1]; 48 h),IC50 ([4]; 24 h) [µM],IC50 ([4]; 48 h) [µM],inhibitory effect on tumor growth (Caco-2 xenograft tumors),cytotoxicity [6]
> 60,47.4 ± 0.91,> 60,> 60,29.6 ± 2.57,38.3 ± 1.11,> 60,> 60,30.6 ± 5.99,15.5 ± 0.42,,COc1ccc(/C=C2\CCC/C(=C\c3ccc(OC)nc3)C2=O)cn1 [CA3],,> 0.1,> 60,> 60,,low toxicity
14.7 ± 0.73,4.87 ± 0.19,30.1 ± 3.36,4.94 ± 1.42,2.35 ± 0.09,1.81 ± 0.36,28 ± 0.77,34.7 ± 1.89,> 60,2.18 ± 0.4,0.22,COc1ccc(/C=C2\CN(C(C)C)C/C(=C\c3ccc(OC)nc3)C2=O)cn1 [CA5],−0.17,0.15,9.8 ± 0.51,6.9 ± 0.46,,
7.7 ± 1.8,9.4 ± 1,17 ± 1.6,7.8 ± 0.7,4.6 ± 0.5,2.7 ± 0.5,22.9 ± 2.7,12.5 ± 0.2,2.63 ± 0.38,1.95 ± 0.2,2.63,COc1ccc(/C=C2\CN(C)C/C(=C\c3ccc(OC)nc3)C2=O)cn1 [CA4],−0.10,−0.59,6.11 ± 0.33,2.5 ± 0.13,,
3 ± 0.6,2.09 ± 0.32,22.2 ± 1.8,10.9 ± 1.3,8.4 ± 0.2,4.3 ± 0.1,21.4 ± 2.7,11.7 ± 0.5,11.2 ± 0.5,10.7 ± 1.6,1.37,COc1cc(/C=C2\CN(C)C/C(=C\c3ccc(OC4CCCCO4)c(OC)c3)C2=O)ccc1OC1CCCCO1 (stereo not shown) [CA9],0.70,0.38,15 ± 0.95,5 ± 0.09,,
